For one series, the target named is T1, HER2 INS YVMA (Homo sapiens, UniProt P04626, INS775YVMA).
T1 construct: purchased DPF
Kind of series: Lance Kinase Activity Assay, HER2 INS YVMA (Her2 Exon 20 INSYVMA Lance). It counts as biochemical. The settings on record: biochemical Lance assay. In outline: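 Kinase phosphorylates a ULight-labelled peptide substrate; Eu anti-phospho antibody gives TR-FRET (ex 340 nm, em 665/615 nm). Compounds in 1:3 serial dilution over 8 steps, reaction started with ATP, 1 h at room temperature, stopped with EDTA-containing detection mix for 1 h. IC50 from sigmoidal dose-response curves.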

For series [1], the target named is Her2 Exon 20 INSYVMA Ba/F3 (Homo sapiens, UniProt P04626, DUP772-775, cells depend on it). Kind of series: Her2 Exon 20 INSYVMA Ba/F3 CellTiter-Glo. It counts as cell-based. The conditions noted are these: CellTiter-Glo, 72 h, read-out: Her2 Exon 20 INSYVMA Ba/F3 CTG IC50. In outline:
(§1)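 IC50 values, binned A (≤100 nM) through E (>10000 nM), come from luminescent ATP quantitation of viable mutant-driven Ba/F3 cells. Compound exposure lasted 72 h, starting 24 h post-seeding; DMSO and 10 μM staurosporine served as controls, Z′ ≥0.5 required.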
A general note: ATP-based viability assays read luminescence as a measure of living cells.

Series [2] concerns the target EGFR Exon 20 INSNPH Ba/F3 (Homo sapiens, UniProt P00533, DUP771-773, cells depend on it). The experiment in a line: EGFR Exon 20 INSNPH Ba/F3 CellTiter-Glo. The series is classed as cell-based. The settings on record: CellTiter-Glo, 72 h, read-out: EGFR Exon 20 INSNPH Ba/F3 CTG IC50. In outline: as §1
The next series deals with EGFR T790ML858R (Homo sapiens, UniProt P00533, L858R/T790M). The experiment in a line: EGFR T790ML858R Lance assay. The series is classed as biochemical. As to the method: (§2) Inhibition is indicated as […] [nM] (“−”=not measured). Compounds having an activity designated as “A” provided an IC50≤100 nM; compounds having an activity designated as “B” provided an 100 nM<IC50≤500 nM; compounds having an activity designated as “C” provided an 500 nM<IC50≤1000 nM; compounds having an activity designated as “D” provided an 1000 nM<IC50≤100000 nM; and compounds having an activity designated as “E” provided an IC50>10000 nM.

Another series addresses EGFR wt (Homo sapiens, UniProt P00533). Kind of series: EGFR wt Lance assay. It counts as biochemical. How it is done:
as §2

Another series concerns H1975. The experiment in a line: H1975 CellTiter-Glo. The conditions noted are these: Homo sapiens, NCI-H1975; 72 h compound incubation; read-out: H1975 CTG IC50. The series is classed as cell-based. Put shortly: (§3)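 Cells seeded, after 24 h at 37° C/5% CO2 treated with compounds in DMSO at various concentrations for 72 h. Viability from ATP luminescence (CellTiter-Glo); DMSO and 10 μM Staurosporine as controls; IC50 from dose-response fit, plates accepted at Z′ ≥0.5.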

A further series relates to A431. Kind of series: A431 CellTiter-Glo. The series is classed as cell-based. The settings on record: Homo sapiens, A-431; 72 h compound incubation; read-out: A431 CTG IC50. Put shortly:
as §3

Series [3] can be described thus: Metabolic stability in mouse liver microsomes without cofactor NADPH. The settings on record: 3 μM test compound, mouse liver microsomes, without NADPH, 50 min, 37° C., LC-MS/MS. It counts as in vitro ADME. Put shortly: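 Test compound (3 μM) was incubated with mouse liver microsomes without NADPH at 37° C. Depletion was followed by LC-MS/MS over time up to 50 min.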
A general note: Microsomes from liver hold many membrane-bound enzymes, among them those of drug oxidation.

Chain of Her2 Exon 20 INSYVMA Ba/F3 (P04626 with tags, fused parts or gaps DUP772-775): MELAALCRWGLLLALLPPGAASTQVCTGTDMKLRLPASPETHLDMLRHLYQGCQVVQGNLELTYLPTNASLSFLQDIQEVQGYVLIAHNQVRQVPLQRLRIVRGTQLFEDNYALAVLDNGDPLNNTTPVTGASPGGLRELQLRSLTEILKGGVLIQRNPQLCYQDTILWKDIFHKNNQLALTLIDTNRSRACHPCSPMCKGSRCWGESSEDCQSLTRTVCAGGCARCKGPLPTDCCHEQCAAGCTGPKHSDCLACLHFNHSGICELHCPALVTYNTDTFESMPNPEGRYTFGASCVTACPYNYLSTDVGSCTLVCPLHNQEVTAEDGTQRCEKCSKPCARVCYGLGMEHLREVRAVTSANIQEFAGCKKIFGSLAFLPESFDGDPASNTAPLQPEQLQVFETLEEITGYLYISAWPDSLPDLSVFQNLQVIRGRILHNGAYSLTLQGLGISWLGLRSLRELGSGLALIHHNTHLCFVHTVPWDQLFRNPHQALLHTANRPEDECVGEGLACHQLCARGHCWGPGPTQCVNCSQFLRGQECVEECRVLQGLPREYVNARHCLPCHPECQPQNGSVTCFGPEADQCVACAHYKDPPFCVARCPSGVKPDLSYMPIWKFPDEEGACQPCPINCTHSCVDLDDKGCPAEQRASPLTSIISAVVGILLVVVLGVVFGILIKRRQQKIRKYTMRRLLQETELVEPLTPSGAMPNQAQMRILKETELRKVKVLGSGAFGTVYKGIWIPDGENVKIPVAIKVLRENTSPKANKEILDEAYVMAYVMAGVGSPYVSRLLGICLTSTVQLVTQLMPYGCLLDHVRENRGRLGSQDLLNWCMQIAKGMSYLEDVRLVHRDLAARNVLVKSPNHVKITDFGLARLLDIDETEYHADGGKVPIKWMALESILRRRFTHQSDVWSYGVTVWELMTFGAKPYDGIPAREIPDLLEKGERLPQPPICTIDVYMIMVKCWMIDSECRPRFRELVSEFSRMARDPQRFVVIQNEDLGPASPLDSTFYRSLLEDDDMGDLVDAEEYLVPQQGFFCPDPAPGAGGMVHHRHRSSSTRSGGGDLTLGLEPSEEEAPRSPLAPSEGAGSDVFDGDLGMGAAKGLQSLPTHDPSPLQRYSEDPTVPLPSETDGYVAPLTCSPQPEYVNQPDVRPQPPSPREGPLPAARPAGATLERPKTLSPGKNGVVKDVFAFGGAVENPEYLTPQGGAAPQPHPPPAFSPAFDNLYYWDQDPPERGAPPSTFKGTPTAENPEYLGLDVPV
T1 sequence (P04626 with tags, fused parts or gaps INS775YVMA): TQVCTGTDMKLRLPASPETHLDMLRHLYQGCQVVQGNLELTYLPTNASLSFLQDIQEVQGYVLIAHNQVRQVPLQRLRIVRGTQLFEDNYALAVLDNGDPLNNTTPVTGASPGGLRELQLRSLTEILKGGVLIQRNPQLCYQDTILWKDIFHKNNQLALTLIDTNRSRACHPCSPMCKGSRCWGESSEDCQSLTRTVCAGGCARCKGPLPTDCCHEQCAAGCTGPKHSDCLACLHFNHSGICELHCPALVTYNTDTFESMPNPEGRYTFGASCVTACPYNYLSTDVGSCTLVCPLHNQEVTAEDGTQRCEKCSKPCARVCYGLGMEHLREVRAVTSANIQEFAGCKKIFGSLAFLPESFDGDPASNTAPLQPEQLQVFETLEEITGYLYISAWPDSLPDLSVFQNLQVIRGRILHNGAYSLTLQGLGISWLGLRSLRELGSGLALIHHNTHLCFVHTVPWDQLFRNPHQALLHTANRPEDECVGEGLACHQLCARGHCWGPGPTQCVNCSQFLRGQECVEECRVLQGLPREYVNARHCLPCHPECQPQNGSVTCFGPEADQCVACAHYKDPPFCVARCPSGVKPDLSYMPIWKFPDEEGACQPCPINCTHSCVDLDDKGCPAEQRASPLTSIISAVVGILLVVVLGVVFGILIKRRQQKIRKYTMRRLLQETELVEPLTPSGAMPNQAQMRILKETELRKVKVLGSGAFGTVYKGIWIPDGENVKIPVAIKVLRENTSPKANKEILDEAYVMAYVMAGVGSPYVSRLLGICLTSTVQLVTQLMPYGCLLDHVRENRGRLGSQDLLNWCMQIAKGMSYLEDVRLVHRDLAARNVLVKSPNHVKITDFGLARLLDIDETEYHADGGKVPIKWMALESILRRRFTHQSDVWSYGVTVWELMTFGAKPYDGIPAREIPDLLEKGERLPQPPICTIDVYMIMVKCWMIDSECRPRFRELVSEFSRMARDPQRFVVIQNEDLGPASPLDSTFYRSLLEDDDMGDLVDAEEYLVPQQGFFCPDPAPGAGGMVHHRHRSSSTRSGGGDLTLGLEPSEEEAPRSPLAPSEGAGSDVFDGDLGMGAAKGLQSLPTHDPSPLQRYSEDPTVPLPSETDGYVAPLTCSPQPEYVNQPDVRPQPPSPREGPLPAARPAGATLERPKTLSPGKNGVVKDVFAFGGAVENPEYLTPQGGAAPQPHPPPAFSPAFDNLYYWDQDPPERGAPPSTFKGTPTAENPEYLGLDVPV
Chain of EGFR Exon 20 INSNPH Ba/F3 (P00533 with tags, fused parts or gaps DUP771-773): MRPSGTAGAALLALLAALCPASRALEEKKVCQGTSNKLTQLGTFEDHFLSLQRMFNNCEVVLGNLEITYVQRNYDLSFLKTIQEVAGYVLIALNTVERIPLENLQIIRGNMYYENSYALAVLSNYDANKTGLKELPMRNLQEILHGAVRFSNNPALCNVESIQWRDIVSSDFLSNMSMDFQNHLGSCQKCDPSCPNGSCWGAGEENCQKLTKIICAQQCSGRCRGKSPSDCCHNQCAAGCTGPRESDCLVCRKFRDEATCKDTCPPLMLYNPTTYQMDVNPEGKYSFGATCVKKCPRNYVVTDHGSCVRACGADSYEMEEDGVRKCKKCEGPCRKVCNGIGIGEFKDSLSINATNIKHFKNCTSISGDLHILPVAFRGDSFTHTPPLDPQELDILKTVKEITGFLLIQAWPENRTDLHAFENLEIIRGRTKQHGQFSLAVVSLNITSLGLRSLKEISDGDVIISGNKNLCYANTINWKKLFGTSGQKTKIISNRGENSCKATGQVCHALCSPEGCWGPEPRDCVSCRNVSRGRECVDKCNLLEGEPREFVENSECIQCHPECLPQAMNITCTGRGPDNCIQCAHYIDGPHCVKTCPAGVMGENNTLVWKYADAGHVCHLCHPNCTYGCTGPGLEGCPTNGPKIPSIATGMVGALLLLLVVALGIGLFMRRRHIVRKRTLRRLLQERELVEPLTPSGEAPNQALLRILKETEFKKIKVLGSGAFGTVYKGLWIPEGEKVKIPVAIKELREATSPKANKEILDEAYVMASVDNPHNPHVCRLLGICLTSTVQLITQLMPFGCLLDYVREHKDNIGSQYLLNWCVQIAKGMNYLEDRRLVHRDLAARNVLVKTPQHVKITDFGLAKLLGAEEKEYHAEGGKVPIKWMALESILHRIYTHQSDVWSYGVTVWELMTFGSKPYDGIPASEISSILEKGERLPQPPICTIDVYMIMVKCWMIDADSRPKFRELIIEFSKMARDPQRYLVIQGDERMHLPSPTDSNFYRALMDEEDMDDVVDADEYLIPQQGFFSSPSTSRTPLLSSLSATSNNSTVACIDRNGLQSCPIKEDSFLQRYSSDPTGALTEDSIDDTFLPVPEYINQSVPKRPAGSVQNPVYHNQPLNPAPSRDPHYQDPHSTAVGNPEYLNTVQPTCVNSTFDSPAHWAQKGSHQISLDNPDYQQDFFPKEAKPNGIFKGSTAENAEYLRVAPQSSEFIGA
Chain of EGFR wt (P00533 25-1210): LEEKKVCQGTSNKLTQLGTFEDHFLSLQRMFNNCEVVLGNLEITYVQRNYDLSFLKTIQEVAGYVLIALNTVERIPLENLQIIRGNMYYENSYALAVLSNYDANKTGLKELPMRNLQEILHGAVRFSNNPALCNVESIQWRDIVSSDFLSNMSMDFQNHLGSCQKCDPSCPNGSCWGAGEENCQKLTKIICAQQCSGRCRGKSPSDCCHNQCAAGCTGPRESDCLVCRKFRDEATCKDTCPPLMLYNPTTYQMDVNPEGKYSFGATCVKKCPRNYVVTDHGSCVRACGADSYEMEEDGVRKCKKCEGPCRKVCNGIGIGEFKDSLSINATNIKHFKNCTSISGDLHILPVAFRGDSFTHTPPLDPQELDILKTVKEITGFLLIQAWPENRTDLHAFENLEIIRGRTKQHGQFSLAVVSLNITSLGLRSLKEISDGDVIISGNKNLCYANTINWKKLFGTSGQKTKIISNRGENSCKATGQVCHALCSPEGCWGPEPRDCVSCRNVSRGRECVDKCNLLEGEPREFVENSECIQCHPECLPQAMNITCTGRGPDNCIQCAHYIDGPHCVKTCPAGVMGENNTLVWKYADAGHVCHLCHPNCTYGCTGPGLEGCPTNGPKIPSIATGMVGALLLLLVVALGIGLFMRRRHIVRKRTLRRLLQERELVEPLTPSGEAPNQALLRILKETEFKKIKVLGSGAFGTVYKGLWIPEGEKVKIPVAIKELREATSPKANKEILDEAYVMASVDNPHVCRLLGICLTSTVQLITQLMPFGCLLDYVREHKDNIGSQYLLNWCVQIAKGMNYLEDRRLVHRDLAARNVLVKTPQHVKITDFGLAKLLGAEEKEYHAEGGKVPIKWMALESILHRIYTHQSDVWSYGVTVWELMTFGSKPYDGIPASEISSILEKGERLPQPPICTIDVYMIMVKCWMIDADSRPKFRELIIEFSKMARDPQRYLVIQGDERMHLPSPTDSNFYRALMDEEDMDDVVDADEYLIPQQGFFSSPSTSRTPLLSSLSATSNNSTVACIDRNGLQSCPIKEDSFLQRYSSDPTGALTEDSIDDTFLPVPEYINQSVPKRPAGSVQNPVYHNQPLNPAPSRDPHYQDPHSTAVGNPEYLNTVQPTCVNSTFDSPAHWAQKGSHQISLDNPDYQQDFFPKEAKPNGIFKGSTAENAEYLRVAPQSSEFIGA

What is called IC50 is the concentration needed to halve the response being measured. Consider `C=CC(=O)N1CCOc2ccc(-c3c(-c4ccnc(N5CCN(C)CC5)c4)[nH]c4nccc(Cl)c34)cc21` [Example 98, 1-(6-(4-chloro-2-(2-(4-methylpiperazin-1-yl)pyridin-4-yl)-1H-pyrrolo[2,3-b]pyridin-3-yl)-2H-benzo[b][1,4]oxazin-4(3H)-yl)prop-2-en-1-one 2,2,2-trifluoroacetate], for which the IC50 at HER2 INS YVMA is at most 100 nM; against EGFR T790ML858R, at most 100 nM; against EGFR wt, at most 100 nM; with H1975, 100 to 500 nM; in the series on A431 it was 500 to 1000 nM. Besides, the GI50 in series [1] and in series [2] was 100 to 500 nM throughout. The “Stability in presence of mouse liver microsomes without cofactor NADPH [% remaining after 50 min]” value in series [3] is listed as above 99 % remaining after 50 min.
On to `C=CC(=O)Nc1cc(-c2c(-c3ccc(N4CCN(C)CC4)cc3)[nH]c3ncc(C(=O)NC4CCCCC4)cc23)ccc1C` [Example 120, 3-(3-acrylamido-4-methylphenyl)-N-cyclohexyl-2-(4-(4-methylpiperazin-1-yl)phenyl)-1H-pyrrolo[2,3-b]pyridine-5-carboxamide], for which the IC50 on HER2 INS YVMA was at most 100 nM; against EGFR T790ML858R, at most 100 nM; at EGFR wt, at most 100 nM; in the series on H1975 it was 100 to 500 nM; in the series on A431 it was 100 to 500 nM. The GI50 in series [1] and in series [2] was 100 to 500 nM throughout. Besides, in series [3], the “Stability in presence of mouse liver microsomes without cofactor NADPH [% remaining after 50 min]” value was above 99 % remaining after 50 min.
As to `C=CC(=O)Nc1cc(-c2c(-c3ccc(CN4CCN(C)CC4)cc3)[nH]c3ncc(C(=O)OC(C)C)cc23)ccc1C` [Example 160, isopropyl 3-(3-acrylamido-4-methylphenyl)-2-(4-((4-methylpiperazin-1-yl)methyl)phenyl)-1H-pyrrolo[2,3-b]pyridine-5-carboxylate], the IC50 is at most 100 nM at HER2 INS YVMA; at most 100 nM against EGFR T790ML858R; at most 100 nM against EGFR wt; 100 to 500 nM with H1975; 1000 to 100000 nM in the series on A431. The GI50 in series [1] and in series [2] was 100 to 500 nM each time. In addition, in series [3], the “Stability in presence of mouse liver microsomes without cofactor NADPH [% remaining after 50 min]” value was above 99 % remaining after 50 min.
With `C=CC(=O)N1CCc2ccc(-c3c(-c4ccc(N5CCN(C)CC5)nc4)[nH]c4nccc(Cl)c34)cc21` [Example 70, 1-(6-(4-chloro-2-(6-(4-methylpiperazin-1-yl)pyridin-3-yl)-1H-pyrrolo[2,3-b]pyridin-3-yl)indolin-1-yl)prop-2-en-1-one], the IC50 is at most 100 nM against HER2 INS YVMA; at most 100 nM against EGFR T790ML858R; at most 100 nM against EGFR wt; 100 to 500 nM in the series on H1975; 500 to 1000 nM with A431. Further, the results for the GI50 in series [1] and in series [2] were 100 to 500 nM and 500 to 1000 nM, respectively. For the same compound, in series [3], the “Stability in presence of mouse liver microsomes without cofactor NADPH [% remaining after 50 min]” value is recorded as above 99 % remaining after 50 min.
For the compound `C=CC(=O)Nc1cc(-c2c(-c3cccc(CN4CCN(C(C)=O)CC4)c3)[nH]c3ncccc23)ccc1C` [Example 81, N-(5-(2-(3-((4-acetylpiperazin-1-yl)methyl)phenyl)-1H-pyrrolo[2,3-b]pyridin-3-yl)-2-methylphenyl)acrylamide], the IC50 on HER2 INS YVMA is 1000 to 10000 nM; at EGFR T790ML858R it was at most 100 nM; against EGFR wt, 100 to 500 nM; in the series on H1975, 1000 to 100000 nM; in the series on A431, 1000 to 100000 nM. In addition, the GI50 in series [1] and in series [2] was 1000 to 10000 nM throughout. For the same compound, the “Stability in presence of mouse liver microsomes without cofactor NADPH [% remaining after 50 min]” value in series [3] is 80 % remaining after 50 min.
For `C=CC(=O)Nc1cc(-c2c(-c3ccc(CCN(C)C)cc3)[nH]c3ncc(C(=O)OC(C)C)cc23)ccc1C` [Example 161, isopropyl 3-(3-acrylamido-4-methylphenyl)-2-(4-(2-(dimethylamino)ethyl)phenyl)-1H-pyrrolo[2,3-b]pyridine-5-carboxylate], the IC50 against HER2 INS YVMA is at most 100 nM; on EGFR T790ML858R, at most 100 nM; at EGFR wt it was at most 100 nM; in the series with H1975, 100 to 500 nM; with A431 it was 1000 to 100000 nM. Also, the GI50 in series [1] and in series [2] was 100 to 500 nM throughout. Also, the “Stability in presence of mouse liver microsomes without cofactor NADPH [% remaining after 50 min]” value in series [3] is above 99 % remaining after 50 min.
With `C=CC(=O)Nc1cc(-c2c(-c3ccc(N(C)CCN(C)C)cc3)[nH]c3nccc(Cl)c23)ccc1C` [Example 43, N-(5-(4-chloro-2-(4-((2-(dimethylamino)ethyl)(methyl)amino)phenyl)-1H-pyrrolo[2,3-b]pyridin-3-yl)-2-methylphenyl)acrylamide], the IC50 against HER2 INS YVMA was at most 100 nM; against EGFR T790ML858R, at most 100 nM; at EGFR wt, at most 100 nM; in the series with H1975, at most 100 nM; with A431 it was 100 to 500 nM. The GI50 in series [1] and in series [2] was at most 100 nM throughout. For the same compound, in series [3], the “Stability in presence of mouse liver microsomes without cofactor NADPH [% remaining after 50 min]” value is on record as above 99 % remaining after 50 min.
Turning to `C=CC(=O)N1CCOc2ccc(-c3c(-c4ccc(N5CCN(C(C)C)CC5)cc4)[nH]c4nccc(Cl)c34)cc21` [Example 85, 1-(6-(4-chloro-2-(4-(4-isopropylpiperazin-1-yl)phenyl)-1H-pyrrolo[2,3-b]pyridin-3-yl)-2H-benzo[b][1,4]oxazin-4(3H)-yl)prop-2-en-1-one], the IC50 is at most 100 nM against HER2 INS YVMA; at most 100 nM against EGFR T790ML858R; at most 100 nM on EGFR wt; 100 to 500 nM with H1975; 500 to 1000 nM in the series on A431. The GI50 in series [1] and in series [2] was 100 to 500 nM throughout. Also, the “Stability in presence of mouse liver microsomes without cofactor NADPH [% remaining after 50 min]” value in series [3] is above 99 % remaining after 50 min.
Consider `C=CC(=O)Nc1cc(-c2c(-c3ccc(N4CCN(C)CC4)cc3)[nH]c3ncc(C(=O)O)cc23)ccc1C` [Example 116, 3-(3-acrylamido-4-methylphenyl)-2-(4-(4-methylpiperazin-1-yl)phenyl)-1H-pyrrolo[2,3-b]pyridine-5-carboxylic acid 2,2,2-trifluoroacetate], for which the IC50 was at most 100 nM against HER2 INS YVMA; at most 100 nM against EGFR T790ML858R; at most 100 nM against EGFR wt; above 10000 nM with H1975; above 10000 nM in the series with A431. Also, the GI50 in series [1] and in series [2] was above 10000 nM throughout. Besides, the “Stability in presence of mouse liver microsomes without cofactor NADPH [% remaining after 50 min]” value in series [3] was determined as 92 % remaining after 50 min.
In the case of `C=CC(=O)N1CCc2ccc(-c3c(-c4ccc(C(=O)N5CCN(C)CC5)cc4)[nH]c4nccc(Cl)c34)cc21` [Example 66, 1-(6-(4-chloro-2-(4-(4-methylpiperazine-1-carbonyl)phenyl)-1H-pyrrolo[2,3-b]pyridin-3-yl)indolin-1-yl)prop-2-en-1-one], the half-inhibitory concentration (IC50) is at most 100 nM on HER2 INS YVMA; at most 100 nM against EGFR T790ML858R; at most 100 nM at EGFR wt; 100 to 500 nM in the series on H1975; 1000 to 100000 nM with A431. The GI50 in series [1] was in the range of 100 to 500 nM; in series [2], 500 to 1000 nM. In addition, the “Stability in presence of mouse liver microsomes without cofactor NADPH [% remaining after 50 min]” value in series [3] is on record as above 99 % remaining after 50 min.
Consider `C=CC(=O)N1CCc2ccc(-c3c(-c4ccc(N5CCN(C)CC5)cc4)[nH]c4nccc(OC)c34)cc21` [Example 110, 1-(6-(4-methoxy-2-(4-(4-methylpiperazin-1-yl)phenyl)-1H-pyrrolo[2,3-b]pyridin-3-yl)indolin-1-yl)prop-2-en-1-one], for which the half-maximal inhibitory concentration (IC50) was at most 100 nM against HER2 INS YVMA; at most 100 nM at EGFR T790ML858R; at most 100 nM at EGFR wt; at most 100 nM in the series with H1975; 500 to 1000 nM in the series with A431. Further, the GI50 in series [1] and in series [2] was 100 to 500 nM each time. The “Stability in presence of mouse liver microsomes without cofactor NADPH [% remaining after 50 min]” value in series [3] stood at 93 % remaining after 50 min.

The values above are taken from patent US20220370440A1 (Lead Discovery Center GmbH, priority 2018, published 2022).
